Experiments:
[1] = 100 kPa, Liquid; for viscosity: Concentric cylinders viscometry; for mass density: Vibrating tube method
[2] = xn = mol fraction of the nth substance listed; conditions: 100 kPa, Liquid; for viscosity: Concentric cylinders viscometry; for mass density: Vibrating tube method

CCCC[n+]1ccccc1.F[B-](F)(F)F [1-butylpyridinium tetrafluoroborate]
[1]
Conditions | mass density [kg/m3] | viscosity [mPa·s]
293.15 K | 1216.6 | 228.9
298.15 K | 1213.1 | 166.9
303.15 K | 1209.6 | 124.5
308.15 K | 1206.2 | 94.97
313.15 K | 1202.8 | 73.94
318.15 K | 1199.4 | 58.64
323.15 K | 1196 | 47.29
328.15 K | 1192.6 | 38.71
333.15 K | 1189.2 | 32.12
338.15 K | 1185.8 | 26.98
343.15 K | 1182.5 | 22.97

C[n+]1ccn(CCO)c1.F[B-](F)(F)F [1-(2-hydroxyethyl)-3-methylimidazolium tetrafluoroborate]
[1]
Conditions | mass density [kg/m3] | viscosity [mPa·s]
293.15 K | 1362.4 | 153.6
298.15 K | 1358.7 | 115.1
303.15 K | 1354.8 | 87.98
308.15 K | 1351.2 | 68.59
313.15 K | 1347.4 | 54.81
318.15 K | 1343.7 | 44.44
323.15 K | 1340.1 | 36.5
328.15 K | 1336.4 | 30.46
333.15 K | 1332.8 | 25.73
338.15 K | 1329.2 | 21.98
343.15 K | 1325.5 | 18.95

CCCC[n+]1ccccc1.F[B-](F)(F)F [1-butylpyridinium tetrafluoroborate] + C[n+]1ccn(CCO)c1.F[B-](F)(F)F
[2], x2 = 0
Conditions | mass density [kg/m3] | viscosity [mPa·s]
293.15 K | 1216.6 | 228.9
298.15 K | 1213.1 | 166.9
303.15 K | 1209.6 | 124.5
308.15 K | 1206.2 | 94.97
313.15 K | 1202.8 | 73.94
318.15 K | 1199.4 | 58.64
323.15 K | 1196 | 47.29
328.15 K | 1192.6 | 38.71
333.15 K | 1189.2 | 32.12
338.15 K | 1185.8 | 26.98
343.15 K | 1182.5 | 22.97

CCCCn1cc[n+](C)c1.F[B-](F)(F)F [1-butyl-3-methylimidazolium tetrafluoroborate] + CCCC[n+]1ccccc1.F[B-](F)(F)F
[2], x1 = 1
Conditions | mass density [kg/m3] | viscosity [mPa·s]
293.15 K | 1204 | 141.1
298.15 K | 1200.5 | 107.5
303.15 K | 1197 | 83.48
308.15 K | 1193.4 | 65.97
313.15 K | 1189.9 | 53
318.15 K | 1186.3 | 43.21
323.15 K | 1182.8 | 35.7
328.15 K | 1179.3 | 29.86
333.15 K | 1175.8 | 25.26
338.15 K | 1172.3 | 21.59
343.15 K | 1168.9 | 18.62

CCCCn1cc[n+](C)c1.F[B-](F)(F)F [1-butyl-3-methylimidazolium tetrafluoroborate]
[1]
Conditions | mass density [kg/m3] | viscosity [mPa·s]
293.15 K | 1204 | 141.1
298.15 K | 1200.5 | 107.5
303.15 K | 1197 | 83.48
308.15 K | 1193.4 | 65.97
313.15 K | 1189.9 | 53
318.15 K | 1186.3 | 43.21
323.15 K | 1182.8 | 35.7
328.15 K | 1179.3 | 29.86
333.15 K | 1175.8 | 25.26
338.15 K | 1172.3 | 21.59
343.15 K | 1168.9 | 18.62

CCCCn1cc[n+](C)c1.F[B-](F)(F)F [1-butyl-3-methylimidazolium tetrafluoroborate] + C[n+]1ccn(CCO)c1.F[B-](F)(F)F
[2], x2 = 0
Conditions | mass density [kg/m3] | viscosity [mPa·s]
293.15 K | 1204 | 141.1
298.15 K | 1200.5 | 107.5
303.15 K | 1197 | 83.48
308.15 K | 1193.4 | 65.97
313.15 K | 1189.9 | 53
318.15 K | 1186.3 | 43.21
323.15 K | 1182.8 | 35.7
328.15 K | 1179.3 | 29.86
333.15 K | 1175.8 | 25.26
338.15 K | 1172.3 | 21.59
343.15 K | 1168.9 | 18.62
